Structures can show the parent of a compound that is named as a salt. Where two headings read alike, the source gives them in different places.
Assays:
recombinant human ETB R = biological target: T1, recombinant human ETB R (Homo sapiens, UniProt P24530); experiment: biochemical; format: binding; conditions: read-out: HERBA-B IC50
T1 sequence (P24530 27-442): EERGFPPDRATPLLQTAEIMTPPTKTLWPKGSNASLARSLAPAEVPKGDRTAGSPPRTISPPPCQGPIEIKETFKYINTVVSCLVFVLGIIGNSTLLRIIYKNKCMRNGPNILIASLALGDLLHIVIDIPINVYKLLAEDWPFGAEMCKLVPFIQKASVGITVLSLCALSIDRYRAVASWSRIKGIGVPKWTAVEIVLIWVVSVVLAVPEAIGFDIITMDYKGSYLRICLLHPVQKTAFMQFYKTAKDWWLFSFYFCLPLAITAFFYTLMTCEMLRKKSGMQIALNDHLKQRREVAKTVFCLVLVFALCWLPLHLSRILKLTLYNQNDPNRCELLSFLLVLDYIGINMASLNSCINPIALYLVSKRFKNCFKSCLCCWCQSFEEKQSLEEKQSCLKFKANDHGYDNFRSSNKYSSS
Procedure: (§1) The following cultured cells were used in binding experiments: CHO-K1 cells expressing recombinant human ETB R (HERBA B), or Ltk-cells expressing human ETA R (HERBA A). […] Membranes were prepared from cultured cells by lysing cells in cold lysis buffer (5 mM HEPES, 2 mM EDTA, pH 7.4) and homogenizing with a Dounce "A" homogenizer. […] Radioligand and competing ligands were prepared in binding buffer containing 20 mM Tris, 2 mM EDTA, and 0.1% BSA.
(§2) The assay was terminated by filtration over Whatman GF/B filters that were presoaked with 50 mM Tris, pH 7.4, containing 0.2% BSA and 100 μM bacitracin. […] binding was defined as total binding minus nonspecific binding.

human ETA R = biological target: T2, human ETA R (Homo sapiens, UniProt P25101); experiment: biochemical; format: binding; conditions: read-out: HERBA-A IC50
T2 sequence (P25101 21-427): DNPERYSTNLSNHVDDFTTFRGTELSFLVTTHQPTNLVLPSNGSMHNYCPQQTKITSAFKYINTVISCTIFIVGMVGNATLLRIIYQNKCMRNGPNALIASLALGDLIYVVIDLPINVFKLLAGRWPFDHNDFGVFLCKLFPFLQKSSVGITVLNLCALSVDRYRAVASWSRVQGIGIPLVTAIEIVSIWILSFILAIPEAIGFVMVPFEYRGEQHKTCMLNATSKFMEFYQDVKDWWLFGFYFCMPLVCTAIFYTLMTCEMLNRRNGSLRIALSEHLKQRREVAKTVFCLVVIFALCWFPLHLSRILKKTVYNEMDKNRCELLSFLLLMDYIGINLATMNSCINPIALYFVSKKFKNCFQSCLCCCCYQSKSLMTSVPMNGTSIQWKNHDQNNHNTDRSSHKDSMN
Procedure: as §1, §2

[1] = human cloned receptor ETB, [125I]-ET-1 (40 pM), 2 hours, 37 °C
[2] = human cloned receptor ETA, [125I]-ET-1 (40 pM), 2 hours, 37 °C

Row | IC50 (recombinant human ETB R; [1]) [nM] | IC50 (human ETA R; [2]) [nM] | IC50 (recombinant human ETB R) [nM] | IC50 (human ETA R) [nM] | SMILES
1 | > 2500 | 2 |  |  | COc1ccc(C2(O)OC(=O)C(c3cc(OC)cc(OC)c3)=C2Cc2cc(OC)c(OC)c(OCCN(C)C)c2)cc1 (stereo not drawn) [Example 16]
2 | 210 | 1 |  |  | COc1ccc(C2(O)OC(=O)C(c3cc(OC)c4c(c3)OCO4)=C2Cc2cccc(CN(C)C)c2)cc1 (stereo not drawn) [Example 35, 4-(3-Dimethylaminomethyl-benzyl)-5-hydroxy-3-(7-methoxy-benzo[1,3]dioxol-5-yl)-5-(4-methoxy-phenyl)-5H-furan-2-one 2-hydroxyethanesulfonate]
3 | 110 | 0.6 |  |  | COc1ccc(C2(O)OC(=O)C(c3cc(OC)c4c(c3)OCO4)=C2Cc2cccc(CN(C)C)c2)cc1 (stereo not drawn) [Example 34, 4-(3-Dimethylaminomethyl-benzyl)-5-hydroxy-3-(7-methoxy-benzo[1,3]dioxol-5-yl)-5-(4-methoxy-phenyl)-5H-furan-2-one]
4 |  |  | 300 | 2 | COc1ccc(C(=O)C(Cc2cccc(CN(C)C)c2)=C(C(=O)O)c2cc(OC)c3c(c2)OCO3)cc1 [sodium salt]
5 | > 2500 | 180 |  |  | COc1cc(CC2=C(c3ccc4c(c3)OCO4)C(=O)OC2(O)c2ccc(OCCCN(C)C)cc2)cc(OC)c1OC (stereo not drawn) [Example 30, 3-Benzo[1,3]dioxol-5-yl-5-[4-(3-dimethylamino-propoxy)-phenyl]-5-hydroxy-4-(3,4,5-trimethoxy-benzyl)-5H-furan-2-one 2-hydroxyethanesulfonate]
6 | 900 | 4 |  |  | COc1ccc(C2(O)OC(=O)C(c3ccc4c(c3)OCO4)=C2Cc2cccc(CN(C)C)c2)cc1 (stereo not drawn) [Example 32]
7 | 2700 | 2 |  |  | CNc1cccc(CC2=C(c3ccc4c(c3)OCO4)C(=O)OC2(O)c2ccc(OC)cc2)c1 (stereo not drawn) [Example 31, 3-Benzo[1,3]dioxol-5-yl-5-hydroxy-5-(4-methoxy-phenyl)-4-(3-methylamino-benzyl)-5H-furan-2-one]
8 | 4100 |  |  | 12 | COc1cc(CC2=C(c3ccc4c(c3)OCO4)C(=O)OC2(O)c2ccc(OCCN3CCOCC3)cc2)cc(OC)c1OC (stereo not drawn) [Example 28, 3-Benzo[1,3]dioxol-5-yl-5-hydroxy-5-[4-(2-morpholin-4-yl-ethoxy)-phenyl]-4-(3,4,5-trimethoxy-benzyl)-5H-furan-2-one 2-hydroxyethanesulfonate]
9 | > 2500 | 2 |  |  | COc1ccc(C2(O)OC(=O)C(c3ccc4c(c3)OCO4)=C2Cc2cc(OC)c(OC)c(OCC(=O)NCCN3CCOCC3)c2)cc1 (stereo not drawn) [Example 3, 2-{5-[4-Benzo[1,3]dioxol-5-yl-2-hydroxy-2-(4-methoxy-phenyl)-5-oxo-2,5-dihydro-furan-3-ylmethyl]-2,3-dimethoxy-phenoxy}-N-(2-morpholin-4-yl-ethyl)-acetamide]
10 | > 2500 | 12.5 |  |  | COc1ccc(C2(O)OC(=O)C(c3cc(OC)cc(OC)c3)=C2Cc2cc(OC)c(OC)c(OCCCN3CCN(C)CC3)c2)cc1 (stereo not drawn) [Example 17, 4-{3,4-Dimethoxy-5-[3-(4-methyl-piperazzin-1-yl)-propoxy]-benzyl}-3-(3,5-dimethoxy-phenyl)-5-hydroxy-5-(4-methoxy-phenyl)-5-hydroxy-5-(4-methoxy-phenyl)-5H-furan-2-one]
11 | > 25000 | 180 |  |  | COc1ccc(C2(O)OC(=O)C(c3ccc4c(c3)OCO4)=C2Cc2cc(OC)c(OCCN3CCOCC3)c(OCCN3CCOCC3)c2)cc1 (stereo not drawn) [Example 9, 3-Benzo[1,3]dioxol-5-yl-5-hydroxy-4-[3-methoxy-4,5-bis-(2-morpholin-4-yl-ethoxy)-benzyl]-5(4-methoxy-phenyl)-5H-furan-2-one 2-hydroxyethanesulfonate]
12 | 17000 | 40 |  |  | COc1cc(CC2=C(c3ccc4c(c3)OCO4)C(=O)OC2(O)c2ccc(OCCCN(C)C)cc2)cc(OC)c1OC (stereo not drawn) [Example 29, 3-Benzo[1,3]dioxol-5-yl-5-[4-(3-dimethylamino-propoxy)-phenyl]-5-hydroxy-4-(3,4,5-trimethoxy-benzyl)-5H-furan-2-one]

Source: patent US6297274A, “Nonpeptide endothelin antagonists with increased water solubility” (priority 1998, dated 2001)
